Laboratory results from publication PMC3124361 (Journal of medicinal chemistry, 2011).
Values after ≈ are worked out from the molar mass of the structure shown.

Columns and labels:
[1] = Non-equilibrium solubility by nephelometry, pH 6.5; type: physicochemical; settings: phosphate buffer
human albumin = human albumin (Homo sapiens, UniProt P02768); assay: Protein binding estimated on human albumin column; type: in vitro ADME; settings: human albumin chromatographic method
hDHODH = hDHODH (Homo sapiens, UniProt Q02127); settings: read-out: IC50 hDHODH; reported previously; ref [13], [15]; cited from earlier work
P. falciparum 3D7 cells = settings: cited from earlier work
[2] = predicted hepatic extraction ratio, human; ref [13], [15]; cited from earlier work
[3] = ref [13], [15], cited from earlier work

Sequence of human albumin (P02768 25-609): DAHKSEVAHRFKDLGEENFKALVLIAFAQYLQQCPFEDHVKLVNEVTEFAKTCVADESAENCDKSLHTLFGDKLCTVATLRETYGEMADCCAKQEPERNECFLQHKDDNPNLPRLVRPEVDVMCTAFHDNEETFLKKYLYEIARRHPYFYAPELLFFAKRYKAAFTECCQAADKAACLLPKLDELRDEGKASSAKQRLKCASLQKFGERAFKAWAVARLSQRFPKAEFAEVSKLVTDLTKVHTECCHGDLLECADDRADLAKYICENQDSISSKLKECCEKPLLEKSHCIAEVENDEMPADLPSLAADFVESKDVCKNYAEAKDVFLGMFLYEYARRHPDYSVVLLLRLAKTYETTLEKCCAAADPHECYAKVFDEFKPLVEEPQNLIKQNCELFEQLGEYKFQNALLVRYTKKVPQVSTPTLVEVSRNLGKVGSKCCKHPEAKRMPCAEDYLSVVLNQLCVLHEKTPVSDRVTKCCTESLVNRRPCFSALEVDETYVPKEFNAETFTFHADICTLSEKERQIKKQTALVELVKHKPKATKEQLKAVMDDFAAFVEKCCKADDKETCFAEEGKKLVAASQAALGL
Sequence of hDHODH (Q02127 31-395 limits assumed): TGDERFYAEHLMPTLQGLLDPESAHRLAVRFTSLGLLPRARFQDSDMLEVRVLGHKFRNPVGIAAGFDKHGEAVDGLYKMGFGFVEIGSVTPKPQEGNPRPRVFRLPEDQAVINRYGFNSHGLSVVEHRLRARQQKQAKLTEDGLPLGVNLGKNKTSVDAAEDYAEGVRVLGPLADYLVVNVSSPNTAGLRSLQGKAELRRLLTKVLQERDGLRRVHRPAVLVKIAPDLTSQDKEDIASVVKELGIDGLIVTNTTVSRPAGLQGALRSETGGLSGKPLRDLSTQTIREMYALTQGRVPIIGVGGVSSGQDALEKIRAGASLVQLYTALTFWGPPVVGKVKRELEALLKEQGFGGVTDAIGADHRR

For `Cc1cc(Nc2ccc3ccccc3c2)n2ncnc2n1` [Compound 1, (5-methyl-[1,2,4]triazolo[1,5-a]pyrimidin-7-yl)-naphthalen-2-yl-amine], the solubility [1] is listed as 45 to 90 µM (≈ 12.4 to 24.8 µg/mL), the “Human Plasma Binding” value (human albumin) is listed as 93.8% and the IC50 (hDHODH) is listed as greater than 200000 nM. For the same compound, the EC50 (P. falciparum 3D7 cells; read-out: EC50 Pf 3D7 cells, serum media, reported previously, ref [13], [15]) was 76 nM, the IC50 (P. falciparum 3D7 cells; read-out: IC50 against the parasite, initial lead, ref [15]) was 50 to 100 nM and the “Eh Human” value [2] was 0.84. For the same compound, the “CLint Mouse” value ([3]; mouse liver microsomes, reported previously) was 229 μL/min/mg protein and the “Eh Mouse” value ([3]; predicted hepatic extraction ratio, mouse) was 0.91.
